Assay results: patent EP0488169A1, “Beta-Hydroxyethylamines with a 1,1-disubstituted cyclopropyl-group, process for their preparation and use” (HOECHST AKTIENGESELLSCHAFT, priority 1990, dated 1992)

How the values were obtained:
[1] = tested on: Trichophyton Mentagrophytes; test: Fungicidal (killing) effect on resting stages (microconidia) of Trichophyton Mentagrophytes, overnight incubation in aqua dest., survival after wash-out; format: cell-based; settings: read-out: Fungizidie (pilzabtötende Wirkung)
Description: Die Fungizide (pilzabtötende Wirkung) der Verbindungendes Typs der Formel I wird bestimmt, indem Ruhestadien (Vermehrungsform ist gleich Mikrokonidien) des Pilzes Trichophyton Mentagrophytes in aqua dest. über Nacht inkubiert werden. Nach Auswaschen des Präparats (vgl. H. Hänel und W. Raether in mycoses 31 (3), 148-154 (1988)) wird auf Überleben der Pilze geprüft.
Einige auf diese Weise bestimmte Werte sind in Tabelle 4 wiedergegeben (Vergleichspräparat ist Rilopirox).

[2] = tested on: Candida albicans; test: Systemic Candida albicans infection in the mouse, survival time, combination therapy with Fluconazol; format: in vivo, Maus; settings: for Überlebenszeit (bez. auf Fluconazol = 100 %): mice infected i.v. with C. albicans, Fluconazol 9 x p.o. 50 mg/kg/day, combination partner 14 x p.o. 50 mg/kg/day
Description: Als Beispiele für die systemische in vivo-Wirksamkeit der Verbindungen dient die systemische Candida albicans Infektion bei der Maus.
Ziel dieser Methode ist es, den Effekt von Präparaten auf eine systemische Candida albicans Infektion zu ermitteln. Die Infektion führt innerhalb von 2-4 Tagen zum Tod der Tiere.
Beschreibung der Methode: Albino Mäuse (NMRI, Männchen, 15-20 g Körpergewicht) werden intravenös mit Candida albicans Hefezellen infiziert (Stamm 200/175), die frisch auf Malzagar vorkultiviert wurden und in physiologischer Kochsalzlösung suspendiert wurden. Die Infektionsdosis, die in dem angegebenen Zeitrahmen zur Lethalität führt, wurde photometrisch eingestellt und enthielt eine Million Hefezellen pro Maus.
Die zu prüfenden Verbindungen werden entweder alleine oder in Kombination mit einem Standardantimykotikum verabreicht. Im durchgeführten Test wurde ein Kombinationspräparat verwendet, wobei als Standardantimykotikum Fluconazol (Fa. Pfizer) diente. Applikationswege sind je nach Substanzgruppe unterschiedlich, wobei der oralen Applikation der Vorzug gegeben wird. Die Mäuse werden 4 Wochen beobachtet, die Mortalität wird täglich registriert, und die Überlebenszeiten der einzelnen Gruppen werden gemittelt und untereinander verglichen. Gruppengröße beträgt durchschnittlich 10 Tiere.
Der Vergleich der Mittelwerte geschieht mit dem Students T Test.
Dosierungen: Fluconazol jeweils 9 x p.o. 50 mg/kg/Tag Kombinationspartner jeweils 14 x p.o. 50 mg/kg /Tag

[3] = tested on: Phospholipase aus Leberzellen; settings: phospholipase from liver cells; Biochem. Pharmacol. 34, 521-24, 1985; cited from earlier work

| SMILES | killing at 5 µg/mL [1] | killing at 10 µg/mL [1] | killing at 20 µg/mL [1] | killing at 40 µg/mL [1] | killing at 80 µg/mL [1] | Überlebenszeit (bez. auf Fluconazol = 100 %) [2] | Verlängerung der Überlebenszeit ([2]; combination therapy with Fluconazol versus Fluconazol monotherapy, compound 14 x 50 mg/kg p.o. once daily) | Hemmwirkung [3] |
| --- | --- | --- | --- | --- | --- | --- | --- | --- |
| CC(C)OCCCNCC(O)(c1ccc(Cl)cc1)C1(SCc2ccc(C(C)(C)C)cc2)CC1 (stereo not shown) [Verbindung 1.35] | 99.3% | 100% | 100% | 100% | 100% |  |  |  |
| CCCCNCC(O)(c1ccc(C)cc1)C1(SCc2cccc(C(F)(F)F)c2)CC1 (stereo not shown) [Verbindung 1.48] |  | 99.4% | 100% | 100% | 100% |  |  |  |
| CC(C)NCC(O)(c1ccc(Cl)cc1)C1(SCc2cccc(C(F)(F)F)c2)CC1 (stereo not shown) [Verbindung 1.17] |  | 96.9% | 100% | 100% | 100% |  |  |  |
| CC(C)(C)NCC(O)(c1ccc(Cl)cc1)C1(SCc2ccc(C(C)(C)C)cc2)CC1 (stereo not shown) [Verbindung 1.36] |  | 96.5% | 100% | 100% | 100% |  |  |  |
| CC(C)(C)NCC(O)(c1ccc(Cl)cc1)C1(SCc2ccc(Cl)cc2F)CC1 (stereo not shown) [Verbindung 1.44] |  | 99.1% | 100% | 100% | 100% |  |  |  |
| Cc1cc(COc2ccc(Oc3ccc(Cl)cc3)cc2)n(O)c(=O)c1 [Rilopirox, reference compound] | 96.2% | 100% | 100% | 100% | 100% |  |  |  |
| OC(Cn1cncn1)(Cn1cncn1)c1ccc(F)cc1F [Fluconazol, reference compound] |  |  |  |  |  | 100% |  |  |
| CCCCNCC(O)(c1ccc(Cl)cc1)C1(SCc2ccc(C(C)(C)C)cc2)CC1 (stereo not shown) [Verbindung 1.29] |  | 99.7% | 100% | 100% | 100% |  |  |  |
| CCCCNCC(O)(c1ccc(Cl)cc1)C1(SCc2ccc(Cl)cc2)CC1 (stereo not shown) [Verbindung 1.4] |  |  |  |  |  | 157% | 57% |  |
| CC(C)NCC(O)COc1cccc2ccccc12 (stereo not shown) [Propranolol] |  |  |  |  |  |  |  | wirksamste Substanz |
